Values after ≈ are worked out from the molar mass of the structure shown. Where two headings read alike, the source gives them in different places.
Assays:
[1] = acute toxicity, intraperitoneal injection in mice; conditions: mouse, in vivo, ip
Source text: A special advantage of the A-40104 antibiotics is that they are relatively nontoxic.

Mycoplasma gallisepticum = assay: in vitro broth-dilution studies, mycoplasma; assay type: cell-based
Source text: (§1) The minimal inhibitory concentrations (MIC's) of A-40104 factor A; 19,20-dihydro-A-40104 factor A; and the tetraacetyl derivative of A-40104A against various mycoplasma species, as determined by in vitro broth-dilution studies, are summarized in Table IX.

Mycoplasma hyopneumoniae = assay: in vitro broth-dilution studies, mycoplasma; assay type: cell-based
Source text: as §1

Mycoplasma hyorhinis = assay: in vitro broth-dilution studies, mycoplasma; assay type: cell-based
Source text: as §1

Mycoplasma synoviae = assay: in vitro broth-dilution studies, mycoplasma; assay type: cell-based
Source text: as §1

Streptococcus pyogenes = assay: gradient-plate agar-dilution method; assay type: cell-based
[2] = tested on: Streptococcus sp. X-66 (Group D); assay: gradient-plate agar-dilution method; assay type: cell-based
[3] = tested on: Streptococcus sp. 9960 (Group D); assay: gradient-plate agar-dilution method; assay type: cell-based
[4] = tested on: Neisseria gonorrhea Sand.; assay: gradient-plate agar-dilution method; assay type: cell-based
[5] = tested on: Neisseria gonorrhea Lind.; assay: gradient-plate agar-dilution method; assay type: cell-based
[6] = tested on: Hemophilus influenzae Brun; assay: gradient-plate agar-dilution method; assay type: cell-based; conditions: Haemophilus influenzae
[7] = tested on: Hemophilus influenzae Dick.; assay: gradient-plate agar-dilution method; assay type: cell-based; conditions: Haemophilus influenzae
[8] = tested on: Hemophilus influenzae 251; assay: gradient-plate agar-dilution method; assay type: cell-based; conditions: Haemophilus influenzae
[9] = tested on: Hemophilus influenzae 259; assay: gradient-plate agar-dilution method; assay type: cell-based; conditions: Haemophilus influenzae
[10] = tested on: Hemophilus influenzae 260; assay: gradient-plate agar-dilution method; assay type: cell-based; conditions: Haemophilus influenzae
swine dysentery = conditions: W. E. Brown et al., U.S. Pat. No. 4,041,175; cited from earlier work
[11] = tested on: Staphylococcus aureus 3055; assay: experimental bacterial infection in mice; assay type: in vivo; conditions: two doses, read-out: ED50 × 2
[12] = tested on: Streptococcus pyogenes C203; assay: experimental bacterial infection in mice; assay type: in vivo; conditions: sc, two doses, challenge 1,690 × LD50 (ip), read-out: ED50 × 2
[13] = tested on: Streptococcus pneumoniae Bi-343; assay: experimental bacterial infection in mice; assay type: in vivo; conditions: BI343, sc, two doses, challenge 30 × LD50 (ip), read-out: ED50 × 2
[14] = tested on: Streptococcus pneumoniae BI-492; assay: experimental bacterial infection in mice; assay type: in vivo; conditions: BI492, sc, two doses, challenge 340 × LD50 (ip), read-out: ED50 × 2
Pasteurella hemolytica = assay: standard in vitro tests, Pasteurella; assay type: cell-based
Source text: (§2) Another veterinary aspect of this invention is the activity of the A-40104 antibiotics against Pasteurella species. P. multocida, for example, is a causative agent of respiratory infection in cattle, poultry, and swine. P. hemolytica is a major cause of respiratory disease in cattle. The activity of A-40104 factor A and its dihydro derivative against Pasteurella, as determined by standard in vitro tests, is summarized in Table X.

[15] = tested on: Pasteurella multocida (bovine); assay: standard in vitro tests, Pasteurella; assay type: cell-based
Source text: as §2

[16] = tested on: experimental bacterial infections; assay: experimental bacterial infections in mice (general statement); assay type: in vivo
Description: When two doses of these compounds were administered to mice in illustrative infections, the activity observed was measured as an ED50 value [effective dose in mg./kg. to protect 50 percent of the test animals; see Warren Wick, et al., J. Bacteriol. 81, 233-235 (1961)].

C=CC1(C)CC(OC(=O)CO[C@@H]2OC[C@@H](OC(C)=O)[C@H](OC(C)=O)[C@H]2OC(C)=O)C2(C)C(C)CCC3(CCC(=O)C32)C(C)C1OC(C)=O (some centres unmarked) [Tetraacetyl A-40104A, tetraacetyl derivative of A-40104 factor A]
LD50 [1]: > 300 mg/kg | minimal inhibitory concentration (MIC) (Mycoplasma gallisepticum): 12.5 | minimal inhibitory concentration (MIC) (Mycoplasma hyopneumoniae): 12.5 | minimal inhibitory concentration (MIC) (Mycoplasma hyorhinis): 25.0 | minimal inhibitory concentration (MIC) (Mycoplasma synoviae): 50.0

CC1(C)S[C@@H]2[C@H](NC(=O)[C@H](N)c3ccccc3)C(=O)N2[C@H]1C(=O)O [Ampicillin, reference compound]
MIC (Streptococcus pyogenes): < 0.01 µg/mL | MIC [2]: 0.8 µg/mL (≈ 2.29 µM) | MIC [3]: 0.6 µg/mL (≈ 1.72 µM) | MIC [4]: 0.07 µg/mL (≈ 0.2 µM) | MIC [5]: 0.5 µg/mL (≈ 1.43 µM) | MIC [6]: 0.5 µg/mL (≈ 1.43 µM) | MIC [7]: 0.5 µg/mL (≈ 1.43 µM) | MIC [8]: 70 µg/mL (≈ 200 µM) | MIC [9]: 70 µg/mL (≈ 200 µM) | MIC [10]: 70 µg/mL (≈ 200 µM)

C=C[C@]1(C)C[C@@H](OC(=O)CO)[C@]2(C)[C@H](C)CC[C@]3(CCC(=O)[C@H]32)[C@@H](C)[C@@H]1O [pleuromutilin]
effect in treatment of swine dysentery (swine dysentery): effective in the treatment of swine dysentery

CCC1(C)CC(OC(=O)CO[C@@H]2OC[C@@H](O)[C@H](O)[C@H]2O)C2(C)C(C)CCC3(CCC(=O)C32)C(C)C1O (some centres unmarked) [Dihydro-A-40104A, 19,20-dihydro A-40104 factor A]
ED50 ([11]; Staphylococcus aureus, 3055, po, oral, challenge 500 × LD50 (ip)): 27 mg/kg | ED50 ([11]; Staphylococcus aureus, 3055, po, oral, challenge 3,400 × LD50 (ip)): 28 mg/kg | ED50 ([11]; Staphylococcus aureus, 3055, sc, sc, challenge 69.5 × LD50 (ip)): ≤ 4.4 mg/kg | ED50 [12]: 5.8 mg/kg | ED50 [13]: 35 mg/kg | ED50 [14]: 15.2 mg/kg | minimal inhibitory concentration (MIC) (Mycoplasma gallisepticum): 0.195 | minimal inhibitory concentration (MIC) (Mycoplasma hyopneumoniae): 0.097 | minimal inhibitory concentration (MIC) (Mycoplasma hyorhinis): 0.195 | minimal inhibitory concentration (MIC) (Mycoplasma synoviae): 0.195 | MIC (Pasteurella hemolytica): 16.5 µg/mL (≈ 32.2 µM) | MIC [15]: 6.25 µg/mL (≈ 12.2 µM) | in vivo antimicrobial activity [16]: have shown in vivo antimicrobial activity
